Test results as given in US9827229B2, “Small molecule securinine and norsecurinine analogs and their use in cancers, inflammatory diseases and infections” (INVENIO THERAPEUTICS INC., priority 2013, dated 2017).
Where a name gives a salt, the structure may show the parent alone.

Tested on: HL60 cells
Test: Differentiation of HL60 cells (Dif50)
Type: cell-based, human
Settings: Homo sapiens, HL-60, HL-60 cells, differentiation; no unit in head or cell (other cells of the column print uM); read-out: HL-60, Dif50
Description: The tested compounds and their respective results are produced in Table 1. Those skilled in the art will appreciate that combining the securinine and/or norsecurinine analogs with other differentiation inducing agents, such as all-trans retinoic acid, cytarabine and/or an anthracycline, would be of further benefit. Those skilled in the art will appreciate that inducing differentiation may further reduce oxidative damage due to lower presence of radical inducing enzymes (see, e.g., Yamada et al. J Biol Chem 259(5)3021-3025 (1984) and Weil et al., PNAS 84:2057-2061 (1987)).
(§1) The analogs were then tested and evaluated on the ability to affect differentiation and growth of HL60 cells.

Row | SMILES | EC50 [µM]
1 | CCN(CC)CCSC1CC2=CC(=O)O[C@@]23C[C@@H]1N1CCCC[C@@H]13 (stereo partly shown) [INVS-MG-60] | 15 to 20
2 | O=C1C=C2CC(N3CCN(c4ccc(Br)cc4)CC3)[C@@H]3C[C@@]2(O1)[C@H]1CCCCN31 (stereo partly shown) [Sec-11] | 15 to 20
3 | O=C1C=C2CC(S(=O)Oc3ccccc3)[C@@H]3C[C@@]2(O1)[C@H]1CCCCN31 (stereo partly shown) [Sec-19] | 20 to 30
4 | NC1CC2=CC(=O)O[C@@]23C[C@@H]1N1CCCC[C@@H]13 (stereo partly shown) [INVS-MG-97-IIE] | 20 to 30
5 | O=C1C=C2C[C@H](NCCc3cc4ccccc4[nH]3)[C@@H]3C[C@@]2(O1)[C@H]1CCCCN31 [INVS-MG-98B] | 10 to 15
6 | COc1ccc(CN[C@@H]2CC3=CC(=O)O[C@@]34C[C@@H]2N2CCCC[C@@H]24)cc1 [INVS-MG-86C] | > 30
7 | O=C1C=C2CC(S(=O)(=O)c3ccccc3)[C@@H]3C[C@@]2(O1)[C@H]1CCCCN31 (stereo partly shown) [INVS-MG-184B] | 5 to 7.5
8 | OC1C=C2CC(SCc3ccccc3)[C@@H]3C[C@@]2(O1)[C@H]1CCCCN31 (stereo partly shown) [Sec-2] | > 30

Same assay, conditions: Homo sapiens, HL-60, read-out: HL-60, Dif50, HL-60 cells, differentiation; no unit in head or cell (other cells of the column print uM)

Row | SMILES | EC50 [µM]
9 | O=C1CC2(SCC(F)(F)F)CC(SCC(F)(F)F)[C@@H]3C[C@@]2(O1)[C@H]1CCCCN31 (stereo partly shown) [INVS-MG-5A] | 5 to 7.5
10 | O=C1O[C@]23CC4OC4[C@H](ON4CCCC[C@@H]42)C32OC12 (stereo partly shown) [INVS-MG-76-aq] | > 30
11 | COC(OC)[C@H]1CCC2N1[C@@H]1C=CC3=CC(=O)O[C@@]32C1 (stereo partly shown) [INVG-Z-27-4 = INVS-MG-52D] | 3.25 to 5

Same assay, conditions: read-out: HL-60, Dif50; HL-60 cells, differentiation; no unit in head or cell (other cells of the column print uM)

Row | SMILES | EC50 [µM]
12 | O=C1O[C@]23CC4OC4[C@H](ON4CCCC[C@@H]42)C32OC12 (stereo partly shown) [INVS-MG-77-aq] | > 30
13 | O=C1C=C2C=C[C@@H]3C[C@@]2(O1)[C@H]1CCCCN31 [INVS-MG-94-aq] | > 30

Tested on: HL60 cells
Test: Growth of HL60 cells (IC50)
Type: cell-based, human
Settings: HL-60 cells, growth; no unit in head or cell (other cells of the column print uM); read-out: HL-60, IC50
Protocol: as §1

Row | SMILES | IC50 [µM]
14 | CCCN(CC#CC1=C[C@@H]2C[C@@]3(OC(=O)C=C13)[C@H]1CCCCN21)CCC [INVS-MG-152-III] | < 0.03

Same assay, conditions: Homo sapiens, HL-60, HL-60 cells, growth; no unit in head or cell (other cells of the column print uM); read-out: HL-60, IC50

Row | SMILES | IC50 [µM]
15 | O=C1C=C2C(C#CCCCCl)=C[C@@H]3C[C@@]2(O1)[C@H]1CCCCN31 [INVS-MG-119A] | 0.625 to 1.25
16 | COC(OC)[C@H]1CC[C@H]2N1[C@@H]1C=C(C#Cc3ccc(CO)cc3)C3=CC(=O)O[C@@]32C1 [INVS-MG-224A] | 0.156 to 0.31
17 | COc1ccc2cc(C#CC3=C[C@@H]4C[C@@]5(OC(=O)C=C35)[C@H]3CCCCN43)ccc2c1 [INVS-MG-157-III] | 0.07 to 0.156
18 | O=C1C=C2C(C#CCSc3ccccc3)=C[C@@H]3C[C@@]2(O1)[C@H]1CCCCN31 [INVS-MG-147B] | 0.625 to 1.25
19 | [N-]=[N+]=Nc1ccc(C#CC2=C[C@@H]3C[C@@]4(OC(=O)C=C24)[C@H]2CCCCN32)cc1 [INVS-MG-193-III] | 0.156 to 0.31
20 | COc1cc(C#CC2=C[C@@H]3C[C@@]4(OC(=O)C=C24)[C@H]2CC[C@H](C(OC)OC)N32)cc(OC)c1 [INVS-MG-222B] | < 0.03
21 | CS(=O)(=O)NCC#CC1=CC2CC3(OC(=O)C=C13)C1CCCCN21 (stereo not shown) [INV-SZ-137-1] | 0.07 to 0.15
22 | O=CC1CCC2N1C1C=CC3=CC(=O)OC32C1 (stereo not shown) [INV-SZ-132-1] | 1.25 to 2.5
23 | O=C1C=C2C(C#Cc3ccc([N+](=O)[O-])cc3)=C[C@@H]3C[C@@]2(O1)[C@H]1CCCCN31 [INVS-MG-176B] | 0.31 to 0.625
24 | O=C1C=C2C=CC3CC2(O1)C1CCCCN1O3 (stereo not shown) [INV-SZ-125-2] | < 5
25 | COC(OC)C1CCC2N1C1C=C(C#CCO)C3=CC(=O)OC32C1 (stereo not shown) [INV-SZ-136-1] | 0.15 to 0.31
26 | O=C1C=C2C(C#Cc3ccc(CO)cc3)=CC3CC2(O1)C1CCCCN31 (stereo not shown) [INV-SZ-120-1] | 0.07 to 0.15
27 | O=C1C=C2C(C#Cc3cccc[n+]3[O-])=CC3CC2(O1)C1CCCCN31 (stereo not shown) [INV-SZ-116-1] | 2.5 to 5
28 | O=C1C=C2C(I)=CC3CC2(O1)C1CCC(CO)N31 (stereo not shown) [INV-SZ-140-1] | 0.07 to 0.15
29 | CCCCC1C(/C=C/c2ccc(OC)cc2)C2=CC(=O)O[C@@]23C[C@@H]1N1CCCC[C@@H]13 (stereo partly shown) [INVS-MG-163-IIB] | < 10
30 | CCCCN(CC#CC1=C[C@@H]2C[C@@]3(OC(=O)C=C13)[C@H]1CCCCN21)CCCC [INVS-MG-179B] | 0.156 to 0.31
31 | O=C1C=C2C(/C=C(\C#CCCCCl)CCCCl)=C[C@@H]3C[C@@]2(O1)[C@H]1CCCCN31 [INVS-MG-119B] | 1.25 to 2.5
32 | COc1ccc(C#CC2=C[C@@H]3C[C@@]4(OC(=O)C=C24)[C@H]2CC[C@H](C(OC)OC)N32)cc1OC [INVS-MG-223B] | 0.156 to 0.31
33 | COC(OC)C1CCC2N1C1C=C(C#Cc3ccc[n+]([O-])c3)C3=CC(=O)OC32C1 (stereo not shown) [INV-SZ-115-1] | 0.15 to 0.31

Row | SMILES | IC50 [µM]
34 | COC(OC)[C@H]1CC[C@H]2N1[C@@H]1C=C(C#Cc3ccc(N)cc3)C3=CC(=O)O[C@@]32C1 [INVS-MG-219A] | 0.625 to 1.25
35 | O=C1C=C2C(C#Cc3cccnc3)=C[C@@H]3C[C@@]2(O1)[C@H]1CCCCN31 [INVS-MG-144B] | 0.31 to 0.625
36 | COC(OC)C1CCC2N1C1C=C(C#Cc3cccnc3)C3=CC(=O)OC32C1 (stereo not shown) [INV-SZ-114-1] | 0.07 to 0.15
37 | O=C1C=C2C(C#CCO)=CC3CC2(O1)C1CCCCN31 (stereo not shown) [INV-SZ-133-1] | 1.25 to 2.5
38 | O=C1C=C2C(/C=C(\C#Cc3cc(C(F)(F)F)cc(C(F)(F)F)c3)c3cc(C(F)(F)F)cc(C(F)(F)F)c3)=C[C@@H]3C[C@@]2(O1)[C@H]1CCCCN31 [INVS-MG-149B] | 1.25 to 2.5
39 | O=C1C=C2C(C#Cc3cc(C(F)(F)F)cc(C(F)(F)F)c3)=C[C@@H]3C[C@@]2(O1)[C@H]1CCCCN31 [INVS-MG-149B′] | 1.25 to 2.5
40 | O=C1C=C2C3C=CCC2(O1)C1CCCCN1O3 (stereo not shown) [INV-SZ-125-1] | < 5
41 | COC(OC)C1CCC2N1C1C=C(C#CCNC(=O)CCl)C3=CC(=O)OC32C1 (stereo not shown) [INV-SZ-141-1] | 1.25 to 2.5
42 | O=C1C=C2C(C#Cc3ccc(-c4ccccc4)cc3)=C[C@@H]3C[C@@]2(O1)[C@H]1CCCCN31 [INVS-MG-169-III] | 0.07 to 0.156
43 | COc1cccc(C#CC2=C[C@@H]3C[C@@]4(OC(=O)C=C24)[C@H]2CC[C@H](C(OC)OC)N32)c1 [INVS-MG-221B] | 0.625 to 1.25
44 | CCCCCCCCC#CC1=C[C@@H]2C[C@@]3(OC(=O)C=C13)[C@H]1CCCCN21 [INVS-MG-118-IIB] | 2.5 to 5
45 | O=C1C=C2C(C#Cc3ccc[n+]([O-])c3)=CC3CC2(O1)C1CCCCN31 (stereo not shown) [INV-SZ-113-2] | 0.15 to 0.31
46 | COC(OC)C1CCC2N1C1C=C(C#Cc3ccc(N(C)C)cc3)C3=CC(=O)OC32C1 (stereo not shown) [INV-SZ-117-3] | 0.03 to 0.07
47 | CNCC#CC1=CC2CC3(OC(=O)C=C13)C1CCCCN21 (stereo not shown) [INV-SZ-129-1] | 2.5 to 5
48 | COC(OC)C1CCC2N1C1C=C(C#Cc3ccccc3)C3=CC(=O)OC32C1 (stereo not shown) [INV-SZ-123-2] | 0.37 to 0.75
49 | O=C1C=C2C3C=CCC2(O1)C1CCC=CN1O3 (stereo not shown) [INV-SZ-125-3] | < 5
50 | O=C1C=C2C(C#CCc3ccccc3)=C[C@@H]3C[C@@]2(O1)[C@H]1CCCCN31 [INVS-MG-108-IIB] | 0.31 to 0.625
51 | O=C1C=C2C=CC3CC2(O1)C1CCC(CO)N31 (stereo not shown) [INV-SZ-132-2] | 0.3 to 0.6
52 | C#CC1=C[C@@H]2C[C@@]3(OC(=O)C=C13)[C@H]1CCCCN21 [INVS-MG-207A] | 0.07 to 0.156

Same assay, conditions: Homo sapiens, HL-60, read-out: HL-60, IC50, HL-60 cells, growth

Row | SMILES | IC50 [µM]
53 | COC(OC)[C@@H]1CC[C@H]2N1[C@@H]1C=C(C#Cc3cc4ccccc4c4ccccc34)C3=CC(=O)O[C@@]32C1 [INVS-MG-220C] | > 5
54 | COC(OC)[C@H]1CC[C@H]2N1[C@@H]1C=CC3=CC(=O)O[C@@]32C1 [INVS-MG-99-IVD] | < 5

Same assay, conditions: Homo sapiens, HL-60, read-out: HL-60, IC50, HL-60 cells, growth; no unit in head or cell (other cells of the column print uM)

Row | SMILES | IC50 [µM]
55 | O=C1C=C2C=CC3CC2(O1)C1=C(Br)CCCN13 (stereo not shown) [INV-SZ-118-2] | 0.31 to 0.62
56 | COC(OC)[C@H]1CC[C@H]2N1[C@@H]1C=CC3=CC(=O)O[C@@]32C1 [INVS-MG-99D = 52D] | 0.31 to 0.625
57 | O=C1C=C2C(C#Cc3cc4ccccc4c4ccccc34)=C[C@@H]3C[C@@]2(O1)[C@H]1CCCCN31 [INVS-MG-158-VI] | 0.156 to 0.31
58 | COC(OC)[C@H]1CC[C@H]2N1[C@@H]1C=C(I)C3=CC(=O)O[C@@]32C1 [INVS-MG-99-IVB-I] | 0.31 to 0.625
59 | COC(OC)[C@H]1CC[C@H]2N1[C@@H]1C=C(I)C3=CC(=O)O[C@@]32C1 [INVS-MG-99B = 52B] | 0.156 to 0.31
60 | CCN(CC)CC#CC1=C[C@@H]2C[C@@]3(OC(=O)C=C13)[C@H]1CCCCN21 [INVS-MG-145-V] | 0.07 to 0.156
61 | C[Si](C)(C)C#CC1=C[C@@H]2C[C@@]3(OC(=O)C=C13)[C@H]1CCCCN21 [INVS-MG-207-IIIA] | 1.25 to 2.5
62 | CN(C)c1ccc(C#CC2=C[C@@H]3C[C@@]4(OC(=O)C=C24)[C@H]2CCCCN32)cc1 [INVS-MG-146-IV] | 0.07 to 0.156
63 | COC(OC)[C@H]1CC[C@H]2N1[C@@H]1C=C(C#Cc3cc4ccccc4c4ccccc34)C3=CC(=O)O[C@@]32C1 [INVS-MG-220B] | 0.156

Same assay, conditions: read-out: HL-60, IC50; HL-60 cells, growth

Row | SMILES | IC50 [µM]
64 | COC(OC)[C@H]1CC[C@H]2N1[C@@H]1C=CC3=CC(=O)O[C@@]32C1 [INVS-MG-99-IVD-I] | > 5

Same assay, conditions: read-out: HL-60, IC50; HL-60 cells, growth; no unit in head or cell (other cells of the column print uM)

Row | SMILES | IC50 [µM]
65 | O=C1C=C2C(I)=C[C@@H]3C[C@@]2(O1)[C@H]1CCCCN31 [INVS-MG-84] | > 2.5
66 | O=C1C=C2C(I)=C[C@@H]3C[C@@]2(O1)[C@H]1CCCCN31 [INVS-MG-82 = 12A HCl salt] | > 2.5
67 | O=C1C=C2C(C#Cc3cc4ccccc4c4ccccc34)=C[C@@H]3C[C@@]2(O1)[C@H]1CCCCN31 [INVS-MG-158-V] | < 5
